Paper PMC9990178 (Cell Chemical Biology, 2023)

What was measured:
[1] = system: pulmonary fibrosis induced by N protein of the Omicron variant; assay type: in vivo; conditions: mice, AAV encoding Omicron N protein
[2] = system: Smad3 phosphorylation, α-SMA, COL1A1; assay type: cell-based, mouse; conditions: Alpha, Beta, Gamma, Delta, Omicron N protein; 20 μM, 36 h

`O=c1c(O)c(N2CCN(Cc3ccc(Br)cc3F)CC2)oc2ccccc12` [RMY-205, 2-(4-(4-bromo-2-fluorobenzyl)piperazin-1-yl)-3-hydroxy-4H-chromen-4-one] was tested, and the “pro-fibrotic effects of N protein of the Omicron variant” value [1] was “effectively suppressed”, the “Smad3 phosphorylation induced by N protein variants” value [2] was “abolished” and the “α-SMA and COL1A1 expression induced by N protein variants” value [2] was “suppression”.
